ChEMBL document CHEMBL1287752, “Changes in flavonoid content and tyrosinase inhibitory activity in kenaf leaf extract after far-infrared treatment” (Bioorg Med Chem Lett, 2010)

Assays:
[1] = molecular target: T1, Tyrosinase (Agaricus bisporus, UniProt O42713); assay: Inhibition of mushroom tyrosinase after 20 mins by spectrophotometric analysis
T1 sequence (O42713 whole entry): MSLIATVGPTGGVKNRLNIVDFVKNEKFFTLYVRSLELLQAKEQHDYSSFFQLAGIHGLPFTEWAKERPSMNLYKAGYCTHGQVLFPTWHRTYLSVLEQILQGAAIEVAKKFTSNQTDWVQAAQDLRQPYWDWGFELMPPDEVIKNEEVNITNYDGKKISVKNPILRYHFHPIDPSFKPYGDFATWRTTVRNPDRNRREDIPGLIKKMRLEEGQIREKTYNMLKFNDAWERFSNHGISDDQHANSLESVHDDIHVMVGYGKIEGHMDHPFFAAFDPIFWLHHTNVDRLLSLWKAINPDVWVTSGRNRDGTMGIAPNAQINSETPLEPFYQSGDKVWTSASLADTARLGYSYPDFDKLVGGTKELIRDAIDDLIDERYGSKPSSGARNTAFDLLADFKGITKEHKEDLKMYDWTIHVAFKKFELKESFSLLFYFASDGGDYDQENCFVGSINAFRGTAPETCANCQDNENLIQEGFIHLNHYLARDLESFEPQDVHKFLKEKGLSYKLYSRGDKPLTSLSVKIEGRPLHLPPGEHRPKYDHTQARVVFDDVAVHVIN

[2] = molecular target: T2, Tyrosinase (Agaricus bisporus) (UniProt O42713); settings: 400 uM
T2 sequence (whole entry): T1 sequence (O42713 whole entry)
Description: Inhibition of mushroom tyrosinase at 400 uM after 20 mins by spectrophotometric analysis

IC50 [1] | inhibition [2] | SMILES
> 400 µM | < 39.1% | C[C@@H]1O[C@@H](Oc2cc(O)c3c(=O)c(O)c(-c4ccc(O)cc4)oc3c2)[C@H](O)[C@H](O)[C@H]1O [ALPHA-RHAMNOISOROBIN]
171 µM | – | O=c1c(O)c(-c2ccc(O)cc2)oc2cc(O)cc(O)c12 [KAEMPFEROL]
